Source: patent US11325937B2, “Glycoside compound and preparation method therefor, composition, application, and intermediate” (SHANGHAI HUTCHISON PHARMACEUTICALS LIMITED, priority 2018, dated 2022)

Key:
[1] = test system: VEGF-A mRNA; assay: Sponge implanted animal model of inflammatory angiogenesis: VEGF-A mRNA expression; format: in vivo, male C57/BL6 mice; settings: 2 weeks; for activity in promoting VEGF-A mRNA expression compared with Salvianolate (in words): positive control Salvianolate 60 mg/kg/d, sponge implanted mice
Excerpt: The target pro-angiogenic compounds TG-052, TG-053, TG-054, TG-028, and TG-055 obtained in Effect Example 1 that perform well at the cellular level were further screened for the active molecules that promote VEGF-A mRNA expression in the “sponge implanted animal model” of inflammatory angiogenesis. […] This model can well reflect the expression of VEGF-A mRNA in macrophages recruited around inflammation.
A sponge implanted mouse model was established following the method as described in Zhang J, Modi Y, and Yarovinsky T, et al. Macrophage β2 integrin-mediated, HuR-dependent stabilization of angiogenic factor-encoding mRNAs in inflammatory angiogenesis. [J]. American Journal of Pathology, 2012. 180(4): 1751-1760. The mice used in the present invention was male C57/BL6 mice aged 6-8 weeks and weighing 20-25 g, purchased from Shanghai SLAC Laboratory Animal Co., Ltd, Production License No: SCXK (Shanghai) 2013-0016. The compound screened in Effect Example 1 was weighed according to the amount intended to be used in two weeks, and then mixed with a gel matrix and a solvent to prepare a sustained-release gel of the compound (see Patent Application No.: CN201610168493.9 for the details of the preparation method of the sustained-release gel and the model establishment and detection methods). The specific steps were as follows. A certain amount of the compound obtained in Effect Example 1 was weighed into a 1.5 mL EP tube, and then a certain amount of poly-L-lactic acid (PLLA) with a weight average molecular weight of less than 10,000 was weighed and mixed with the compound (at a weight ratio of the compound to PLLA of 0.5:1 to 2:1). Finally a certain amount of DMSO (less than 100 microliters) was added, spun, mixed well, and then sealed with a sealing film. After continuous ultrasonication at 200 W and 25° C. for 5 h, a sustained-release gel of the compound was obtained, which was stored at 4° C. for later use.
The prepared sustained-release gel can release the drug completely within 2 weeks. The sustained-release gel and sponge were both subcutaneously implanted in the mice at the back. After 2 weeks, the sponge was taken out, and the residual tissue and fur were removed. The sponge was transferred to a cell culture plate containing 10 mL of DMEM medium containing collagenase (Collagenase:DMEM=10 mg/10 mL), cut, and incubated for 1 h in a cell incubator. Then the culture medium containing sponge debris was filtered, and the resulting filtrate was centrifuged. The supernatant was discarded, and 500 μL of Trizol reagent was added to the pellet, and mixed uniformly by blowing. Then the liquid was transferred to a 1.5 mL EP tube, and stored at −80° C. RNA was extracted according to a conventional method, and the RNA concentration was determined using a microvolume nucleic acid and protein analyzer (Nanodrop2000c). The required volume V of RNA was calculated according to the RNA concentration, and the RNA reverse transcription reaction system was prepared according to Table 1. Then RNA reverse transcription (cDNA synthesis) was carried out according to the conditions described in Table 2. The resulting cDNA was used to prepare a fluorescence quantitative qPCR reaction solution according to Table 3. The fluorescence quantitative qPCR reaction conditions were set according to Table 4, and the fluorescence quantitative PCR reaction was performed using cDNA from the reverse transcription reaction as a template. The relative expression level 2^−ΔΔCt of the target gene was calculated from the Ct value of each sample with the blank group as a control and β-Actin as an internal reference. The expression level of VEGF-A mRNA in the cells extracted from the sponge was observed after 2 weeks. […]

[2] = test system: rats with middle cerebral artery occlusion (MCAO); assay: Acute cerebral infarction model in rats with middle cerebral artery occlusion (MCAO); format: in vivo, male SD rats; settings: for ED50: Rattus norvegicus, ip, 72 h, intraperitoneal injection, TTC staining after 3 days, read-out: ED50 for infarction inhibition rate (%); for Longa nerve scoring, protective effect on nerves (in words): FIG. 5
Procedure, shortened: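 Male SD rats (280-320 g) with thread-occlusion MCAO; compound given i.p. 2 h pre-surgery and every 24 h after, 5 rats/group. At day 3, TTC-stained brain sections gave infarction rate and inhibition rate vs model, with ED50 from dose-response; body weight, Longa neuro score, brain water content and Evans Blue BBB permeability also assessed.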

SMILES: COc1ccc(CCCCO[C@@H]2O[C@H](CO)[C@@H](O)[C@H](O)[C@H]2O)cc1 [TG-028]
- VEGF-A mRNA expression level relative to blank control without drugs ([1]; 11.74 mg/kg/d, sustained-release gel, mice): more than 6 times
- VEGF-A mRNA expression level relative to blank control without drugs ([1]; 23.48 mg/kg/d, sustained-release gel, mice): more than 6 times
- activity in promoting VEGF-A mRNA expression compared with Salvianolate (in words) [1]: significantly higher than that of Salvianolate
- effect on inhibiting cerebral infarction (in words) ([2]; MCAO, compared with the control drugs): most potent effect on inhibiting cerebral infarction in rats
- ED50 ([2]; MCAO): 2.61 mg/kg
- water content in brain, effect on reducing cerebral edema (in words) ([2]; TG-028 5 mg/Kg, three days after MCAO, FIG. 6A): better effect on reducing cerebral edema after acute brain injury of MCAO in rats than Edaravone, Clopidogrel bisulfate, and Salvianolate
- integrity of blood-brain barrier, Evans Blue (in words) ([2]; TG-028 5 mg/Kg, three days after MCAO, FIG. 6B): better protective effect on blood-brain barrier after acute brain injury of MCAO in rats than Edaravone and Salvianolate
- Longa nerve scoring, protective effect on nerves (in words) ([2]; three days after MCAO): equivalent to that of Edaravone, Clopidogrel bisulfate, and Salvianolate
- rate of body weight change, protection (in words) ([2]; three days after brain injury, FIG. 3): significant protection for rats in terms of the body weight after brain injury

SMILES: OC[C@H]1O[C@@H](OCCc2ccccc2)[C@H](O)[C@@H](O)[C@@H]1O [TG-055]
- increase of expression level of VEGF-A mRNA compared with blank control without drugs ([1]; 19.48 mg/kg/d, sustained-release gel, mice): about 3 times
- activity in promoting VEGF-A mRNA expression compared with Salvianolate (in words) [1]: comparable to that of Salvianolate
- ED50 ([2]; MCAO): 65.3 mg/kg
- Longa nerve scoring, protective effect on nerves (in words) ([2]; three days after MCAO): equivalent to that of Edaravone, Clopidogrel bisulfate, and Salvianolate
